This is an account of results in ChEMBL document CHEMBL1138947, “Potent inhibitors of the Qi site of the mitochondrial respiration complex III” (J Med Chem, 2006).

Test [1] concerns Parastagonospora nodorum. Put plainly: Inhibition of Septoria nodorum growth in wheat at 40 ppm. In kind it is functional, organism-based.
Test [2] concerns the target T1, Mitochondrial complex II; succinate dehydrogenase (Septoria tritici, UniProt G4XX53+O42772).
T1 sequence (G4XX53 whole entry): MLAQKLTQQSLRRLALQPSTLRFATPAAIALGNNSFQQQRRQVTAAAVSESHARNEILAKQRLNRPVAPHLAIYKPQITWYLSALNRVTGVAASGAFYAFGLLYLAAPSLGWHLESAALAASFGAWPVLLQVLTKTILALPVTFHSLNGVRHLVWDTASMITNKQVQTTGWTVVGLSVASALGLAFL
T1 sequence (O42772 whole entry): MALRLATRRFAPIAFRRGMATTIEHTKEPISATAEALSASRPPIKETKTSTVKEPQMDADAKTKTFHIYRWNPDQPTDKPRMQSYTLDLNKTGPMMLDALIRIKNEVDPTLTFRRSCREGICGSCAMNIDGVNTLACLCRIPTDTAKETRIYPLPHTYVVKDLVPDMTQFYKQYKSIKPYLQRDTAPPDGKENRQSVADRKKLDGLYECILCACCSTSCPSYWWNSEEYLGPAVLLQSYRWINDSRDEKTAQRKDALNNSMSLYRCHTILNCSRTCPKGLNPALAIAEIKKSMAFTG
Put plainly: Inhibition of Septoria nodorum succinate dehydrogenase and Qi site of mitochondrial respiratory chain complex 3 by FMET2-3 assay. In kind it is protein-complex assay, Parastagonospora nodorum.

For test [3], the system named is Parastagonospora nodorum. The test can be described thus: Inhibition of Septoria nodorum growth. Format: functional.

The source made the active and inactive calls. No cut-off for these calls is given here.

The term IC50 denotes the point on the concentration scale where inhibition reaches its midpoint. The low end stands for higher potency, the high end for lower potency.

In the case of `O=C(Nc1ccc(Oc2ccccc2)cc1)c1ccc2[nH]cnc2c1O`, in test [1], the result was inactive. The compound further displayed an IC50 in test [2] of more than 30 µM. In test [3], this compound yielded a GR50 of more than 30 µM.
On to `O=C(Nc1ccc(Oc2ccc(C(F)(F)F)cc2)cc1)c1ccc2[nH]nnc2c1O`, for which the result in test [1] was inactive. This compound registered a 50% inhibitory concentration (IC50) in test [2] of 0.005 µM. In test [3], this compound yielded a GR50 of more than 30 µM.
Take `O=C(Nc1ccc(Oc2ccc(C(F)(F)F)cc2)cc1)c1sc2c[nH]nc2c1O`: in test [1], the result was inactive. For the same compound, the IC50 in test [2] came to 0.026 µM. In addition, the GR50 in test [3] amounted to 11.517 µM.
On to `O=C(Nc1ccc(Oc2ccccc2)cc1)c1ccc2[nH]nnc2c1O`, for which, in test [1], the outcome was inactive. The compound further showed a GR50 in test [3] of more than 30 µM.
With `CCCCCC[C@H]1C(=O)O[C@H](C)[C@H](NC(=O)c2cccc(NC=O)c2O)C(=O)O[C@@H](C)[C@@H]1OC(=O)CC(C)C` [ANTIMYCIN A], the outcome in test [1] was inactive. This compound also yielded an IC50 in test [2] of 0.002 µM. Besides, in test [3], the GR50 is 0.033 µM.
`O=C(Nc1ccc(Oc2ccccc2)cc1)c1ccc2c[nH]nc2c1O`: the result in test [1] was inactive. In test [2], this compound yielded an IC50 of 0.127 µM. This compound registered a GR50 in test [3] of 1.909 µM.
`O=C(Nc1ccc(Oc2ccccc2)cc1)c1ccc2nn[nH]c2c1O` came in with an IC50 in test [2] of 0.032 µM.
Consider `O=C(Nc1ccc(Oc2ccc(C(F)(F)F)cc2)cc1)c1ccc2cn[nH]c2c1O`, for which the result in test [1] was inactive. Further, half-maximal inhibition in test [2] (IC50) required 0.026 µM. The compound also showed a GR50 in test [3] of 0.343 µM.
